Experiments:
Assay type in all cases: cell-based
[1] = test system: immortalized human HaCaT keratinocytes; experiment: Cell proliferation assay (MTT); settings: 72 h; for Effect on HaCaT cell viability (MTT), in words / Effect on HaCaT cell viability/proliferation (MTT), in words: serum-free DMEM; for Effect on HaCaT cell viability (MTT), in words: peptide at 50 μg/mL; for Effect on HaCaT cell viability/proliferation (MTT), in words: whole range 1–50 μg/mL, vs. control without peptide, triplicate; for Concentration above which the conjugate is cytotoxic: MTT, cell type not named in the sentence (keratinocytes and fibroblasts tested)
Experimental: In our study two kind of cells were used: immortalized human HaCaT keratinocytes (DKFZ Heidelberg, Germany) and primary dermal fibroblasts obtained from 3 healthy donors. Both types of the used cell lines were grown in Dulbecco's modified Eagle's medium (DMEM) (Sigma–Aldrich, Germany), that contained […] of glucose, […] of L-glutamine, sodium pyruvate and sodium bicarbonate. Additionally, medium was supplemented with 10% of FCS (fetal calf serum, Sigma-Aldrich, Germany), 100 U/mL of penicillin and 100 μg/mL streptomycin (Sigma-Aldrich, Germany). The cells were grown in culture dishes (BD, USA) under standard conditions in a humidified atmosphere with 5% CO2 at 37°C and medium was changed every 2 days.
The fibroblasts and keratinocytes were seeded at density of 4500 and 6000 cells per well, respectively, into 96-well plates suspended in a medium supplemented with 10% of FCS. After 24 h the media were exchanged with serum- and antibiotic- free DMEM and tested peptides dissolved in PBS were added yielding final concentration ranging from 1 to 50 μg/mL. Cells were incubated for the next 24 hours, when the medium was exchanged again and fresh portion of peptides (used at the same concentrations as previously) was added. Incubation was continued for the next 48 hours (the overall time of cell exposition to peptide was 72 h). At the end of the experiment cells were treated with 20 μL of MTT (5 mg/mL in PBS). After 3 h at 37°C under 5% CO2 medium was discarded and replaced by 6mM HCl in isopropanol. After 15 min when the purple crystals of formazan were fully solubilized, absorbance was read at 570 nm with a plate reader. The optical density reflects the level of cell viability as MTT is converted in purple formazan product only in the presence of viable mitochondria of the living cells.
Fig 1 Pro-proliferative activity of the tested peptides towards human keratinocytes (A) and fibroblasts (B). Cells were incubated for 72 hours in serum-free DMEM medium in the presence of peptides applied at concentrations of 1,10, 25 and 50 μg/mL, respectively. The data represents results of MTT assay expressed as the percentage of the cell viability in comparison to their control sample (cells incubated in serum-free DMEM without tested peptides), additional positive control corresponds to the cells incubated in the presence of 10% FCS. All experiments were performed independently in triplicate. *P < 0.05, **P < 0.01, ***P < 0.001 vs. control.
In order to evaluate a long-term effect of peptides, experiments were carried out for 72 hours. Before addition of the tested compounds, the cell medium was exchanged for the fresh one not containing any serum or antibiotic.

B. cereus = settings: broth microdilution, Mueller-Hinton broth, approximately 10^5 CFU/mL, 37°C, 24 h, absorbance 590 nm, at least triplicate
Experimental: (§1) Luria-Bertani broth (LB) and Sabouraud Dextrose broth (SB) (Biocorp, Poland) were used for cultivation of bacteria and fungi strains, respectively. Antimicrobial activity of peptides was analyzed through determination of MIC (minimal inhibitory concentration) parameter according to the standard microdilution technique performed on 96-well plates. Mueller-Hinton broth (MHB) was used as the working medium for all bacterial strains, while in case of fungi it was additionally supplemented with 2% glucose.
(§2) Briefly, inoculum was prepared from freshly grown cultures of microorganisms being at their exponential phase of growth. Each well of 96-well plates containing 100 μL of serially diluted peptides in PBS (phosphate buffer saline) at concentration ranging from 2 to 250 μg/mL were inoculated with 100 μL of approximately 10^5 CFU/mL of bacterial suspension or about 2.5 x 10^3 CFU/mL of fungi suspended in a double concentrated Mueller-Hinton broth (supplemented with 2% glucose for Candida spps.). Then plates were incubated overnight at 37°C and absorbance was read at 590 nm after 24 h. Cultures without peptide were treated as positive control, while uninoculated Mueller-Hinton broth was defined as negative control. All measurements were run at least in triplicate.
(§3) All peptides were screened against the wide range of microorganisms, including Gram-negative, Gram-positive bacteria and fungi from Candida species (Table 2). Broth microdilution method for MIC determination was used as a standard procedure. All assays were performed on liquid Mueller-Hinton broth, which was additionally supplemented with 2% glucose when fungicidal activity towards Candida spps. was analyzed.

B. subtilis = settings: broth microdilution, Mueller-Hinton broth, approximately 10^5 CFU/mL, 37°C, 24 h, absorbance 590 nm, at least triplicate
Experimental: as §1, §2, §3

[2] = test system: Escherichia coli (PCM 2057); settings: broth microdilution, Mueller-Hinton broth, approximately 10^5 CFU/mL, 37°C, 24 h, absorbance 590 nm, at least triplicate
Excerpt: (§4) Escherichia coli (PCM 2057), Staphylococcus aureus (PCM 2054), Staphylococcus epidermidis (PCM 2118), Pseudomonas aeruginosa (PCM 499) were obtained from Polish Collection of Microorganisms. Fungi strains Candida albicans (CCM 8186), Candida glabrata (CCM 8270), Candida parapsilosis (CCM 8260), Candida krusei (CCM 8271), Candida tropicalis (CCM 8264) were acquired from Czech Collection of Microorganisms.
as §1, §2, §3

[3] = test system: Candida tropicalis (CCM 8264); settings: broth microdilution, Mueller-Hinton broth + 2% glucose, about 2.5 x 10^3 CFU/mL, 37°C, 24 h, absorbance 590 nm, at least triplicate
Excerpt: as §4, §1, §2, §3

[4] = test system: Candida albicans (CCM 8186); settings: broth microdilution, Mueller-Hinton broth + 2% glucose, about 2.5 x 10^3 CFU/mL, 37°C, 24 h, absorbance 590 nm, peptide 2 to 250 μg/mL, at least triplicate
Excerpt: as §4, §1, §2, §3

[5] = test system: Pseudomonas aeruginosa (PCM 499); settings: broth microdilution, Mueller-Hinton broth, approximately 10^5 CFU/mL, 37°C, 24 h, absorbance 590 nm, at least triplicate
Excerpt: as §4, §1, §2, §3

[6] = test system: Candida glabrata (CCM 8270); settings: broth microdilution, Mueller-Hinton broth + 2% glucose, about 2.5 x 10^3 CFU/mL, 37°C, 24 h, absorbance 590 nm, at least triplicate
Excerpt: as §4, §1, §2, §3

[7] = test system: Staphylococcus epidermidis (PCM 2118); settings: broth microdilution, Mueller-Hinton broth, approximately 10^5 CFU/mL, 37°C, 24 h, absorbance 590 nm, at least triplicate
Excerpt: as §4, §1, §2, §3

[8] = test system: Candida krusei (CCM 8271); settings: broth microdilution, Mueller-Hinton broth + 2% glucose, about 2.5 x 10^3 CFU/mL, 37°C, 24 h, absorbance 590 nm, at least triplicate
Excerpt: as §4, §1, §2, §3

[9] = test system: Candida parapsilosis (CCM 8260); settings: broth microdilution, Mueller-Hinton broth + 2% glucose, about 2.5 x 10^3 CFU/mL, 37°C, 24 h, absorbance 590 nm, at least triplicate
Excerpt: as §4, §1, §2, §3

[10] = test system: Staphylococcus aureus (PCM 2054); settings: broth microdilution, Mueller-Hinton broth, approximately 10^5 CFU/mL, 37°C, 24 h, absorbance 590 nm, at least triplicate
Excerpt: as §4, §1, §2, §3

Substance	Effect on HaCaT cell viability (MTT), in words [1]	Effect on HaCaT cell viability/proliferation (MTT), in words [1]	Concentration above which the conjugate is cytotoxic [1]	MIC B. cereus (B. cereus)	MIC B. subtilis (B. subtilis)	MIC E.coli [2]	MIC C.tropicalis [3]	MIC C. albicans [4]	MIC P. aeruginosa [5]	MIC C.glabrata [6]	MIC S. epidermidis [7]	MIC C.krusei [8]	MIC C. parapsilosis [9]	MIC S.aureus [10]
YAGFLR-PEG-IKKILSKIKKLL-NH2 [DAL-PEG-DK5, conjugate of dalargin and DK5 joined by PEG-linker]	lowest cell viability	negative dose-response relationship	higher than 25 μg/mL	25 µg/mL	2.0 µg/mL	25 µg/mL	<2 µg/mL	25 µg/mL	25 µg/mL	125 µg/mL	7.8 µg/mL	3.9 µg/mL	2.0 µg/mL	50 µg/mL
YAGFLR-PEG-IKKILSKIKKLLK-NH2 [DAL-PEG-LK6, conjugate of dalargin and LK6 joined by PEG-linker]	cytotoxic effect		higher than 25 μg/mL	12.5 µg/mL	7.8 µg/mL	25 µg/mL	3.9 µg/mL	25 µg/mL	25 µg/mL	>125 µg/mL	7.8 µg/mL	7.8 µg/mL	2.0 µg/mL	25 µg/mL
IKKILSKIKKLL-NH2 [DK5, Lys-rich derivative of amphibian AMP temporin-1CEb, …-NH2, reference compound]		negative dose-response relationship		>125 µg/mL	15.6 µg/mL	>125 µg/mL	< 2 µg/mL	31.3 µg/mL	50 µg/mL	62.5 µg/mL	7.8 µg/mL	7.8 µg/mL	31.3 µg/mL	>125 µg/mL
